This note sets out measurements from patent publication US20230020663A1, “SULFONAMIDE INHIBITORS AS CTPS1 INHIBITORS” (Step Pharma S.A.S., priority 2019, published 2023).

The test system of one test is human CTPS1 versus CTPS2. In words: Human CTPS1 versus CTPS2 selectivity assessment by RapidFire/MS analysis. Format: biochemical. Conditions: Table 26; RapidFire/MS IC50 ratio. Here is the method:
Human CTPS1 versus CTPS2 Selectivity Assessment by RapidFire/MS Analysis.
The enzyme inhibitory activities against each target isoform of interest may be determined for the compounds of the invention using an optimised RapidFire high-throughput mass spectrometry (RF/MS) assay format. RF/MS assays for both human CTPS1 and CTPS2 may be performed in assay buffer consisting of 50 mM HEPES (Merck), 20 mM MgCl2, 5 mM KCl, 1 mM DTT, 0.01% Tween-20, pH to 8.0 accordingly. Human full-length active C-terminal FLAG-His-tag CTPS1 (UniProtKB—P17812, CTPS[1-591]-[…]) may be obtained from Proteros biostructures GmbH. Human full length active C-terminal FLAG-His-Avi tagged CTPS2 (UniProtKB-Q9NRF8, CTPS2 [1-586]-[…]) may be obtained from Harker Bio.
Human CTPS (1 or 2) protein may be prepared in 1× assay buffer to the final working protein concentration required for the reaction. A 2 uL volume per well of 2×CTPS (1 or 2) protein may be mixed with 40 nL of compound using acoustic (ECHO) delivery and incubated for 10 minutes at 25° C. Each isoform enzymatic reaction may be subsequently initiated by addition of 2 uL per well of a 2× substrate mix in assay buffer. For hCTPS1: ATP (0.3 mM), UTP (0.2 mM), GTP (0.07 mM) and L-glutamine (0.1 mM). For hCTPS2: ATP (0.1 mM), UTP (0.04 mM), GTP (0.03 mM) and L-glutamine (0.1 mM). Each mixture may be incubated for an appropriate amount of time per isoform within the determined linear phase of the reaction at 25′C. A 60 uL volume of stop solution (1% formic acid with 0.5 uM ^13C9-^15N3-CTP in H2O) may be added and the plate immediately heat-sealed and centrifuged for 10 minutes at 4,000 rpm. Following centrifugation, plates may be loaded onto the Agilent RapidFire microfluidic solid phase extraction system coupled to an API4000 triple quadrupole mass spectrometer (RF/MS) for analysis.
In all cases, the enzyme converts UTP to CTP. Highly specific and sensitive multiple reaction monitoring (MRM) MS methods may be optimised for the detection of the enzymatic reaction product, CTP, and the stable isotope labelled product standard ^13C9-^15N3-CTP. Readout for data analysis may be calculated as the ratio between the peak area of the product CTP and the internal standard ^13C9-^15N3-CTP. For data reporting, the following equation may be used: […]
For each screening plate, the means of the negative (DMSO) and positive control values were used for the calculation of the respective assay window (S/B) and Z′ values. The median of the respective control values was used for calculation of percent inhibition according to the following equation: […]
Percentage inhibition was then plotted against compound concentration, and the 50% inhibitory concentration (IC50) was determined from the resultant concentration-response curve.
Fold selectivity between CTPS1 and CTPS2 was subsequently calculated according to the following equation: […]
Consider `CCOc1cncc(-c2ccc(NC(=O)C(F)(CC)c3ccnc(NS(C)(=O)=O)n3)nc2)n1` (stereo not drawn) [Example P151], for which the “Selectivity (fold selectivity between CTPS1 and CTPS2)” value is recorded as “+++ (>60 fold (+++))”.
Turning to `CCOc1cncc(-c2ccc(NC(=O)C(CC)c3cncc(NS(=O)(=O)C4CC4)n3)cc2)n1` (stereo not drawn) [Example P202], the “Selectivity (fold selectivity between CTPS1 and CTPS2)” value is listed as “+++ (>60 fold (+++))”.
For `CCOc1cncc(-c2ccc(NC(=O)C(C)(C)c3ccnc(NS(=O)(=O)C4CC4)n3)nc2)n1` [Example P31], the “Selectivity (fold selectivity between CTPS1 and CTPS2)” value is “+++ (>60 fold (+++))”.
As for `CCOc1cncc(-c2ccc(NC(=O)C3(c4cncc(NS(=O)(=O)C5CC5)n4)CCOCC3)nc2)n1` [Example P197], the “Selectivity (fold selectivity between CTPS1 and CTPS2)” value is “+++ (>60 fold (+++))”.
Consider `CCOc1cncc(-c2ccc(NC(=O)C(C)(C)c3ccnc(NS(=O)(=O)C4CC4)n3)c(C#N)c2)n1` [Example P34], for which the “Selectivity (fold selectivity between CTPS1 and CTPS2)” value is recorded as “+ (2-30 fold (+))”.
`CCOc1cncc(-c2ccc(NC(=O)C(C)(C)c3ccnc(NS(=O)(=O)CC)n3)cc2)n1` [Example P74]: the “Selectivity (fold selectivity between CTPS1 and CTPS2)” value was “++ (>30-60 fold (++))”.
In the case of `CCOc1cncc(-c2ccc(NC(=O)C(C)(C)c3nc(NS(=O)(=O)C4CC4)ncc3C)cc2)n1` [Example P70], the “Selectivity (fold selectivity between CTPS1 and CTPS2)” value is given as “+ (2-30 fold (+))”.
As to `CCOc1cncc(-c2ccc(NC(=O)C3(c4ccnc(NS(=O)(=O)C5CC5)n4)CCOCC3)c(F)c2)n1` [Example P143], the “Selectivity (fold selectivity between CTPS1 and CTPS2)” value is on record as “+++ (>60 fold (+++))”.
`CCOc1cncc(-c2ccc(NC(=O)C(C)(OC)c3cncc(NS(=O)(=O)C4CC4)n3)nc2)n1` (stereo not drawn) [Example P205b]: the “Selectivity (fold selectivity between CTPS1 and CTPS2)” value was “++ (>30-60 fold (++))”.
For the compound `CCOc1cncc(-c2ccc(NC(=O)C(F)(CC)c3ccnc(NS(=O)(=O)C4CC4)n3)nc2)n1` (single isomer, unassigned) [Example P113, 2-(2-(cyclopropanesulfonamido)pyrimidin-4-yl)-N-(5-(6-ethoxypyrazin-2-yl)pyridin-2-yl)-2-fluorobutanamide], the “Selectivity (fold selectivity between CTPS1 and CTPS2)” value is “+ (2-30 fold (+))”.
For `CCC(C(=O)Nc1ccc(-c2cncc(OCC(F)(F)F)n2)cc1)c1ccnc(NS(=O)(=O)C2CC2)n1` (stereo not drawn) [Example P108], the “Selectivity (fold selectivity between CTPS1 and CTPS2)” value is on record as “+++ (>60 fold (+++))”.
With `O=C(Cc1ccnc(NS(=O)(=O)C2CC2)n1)Nc1ccc(-c2cccnc2)cc1` [Example P16], the “Selectivity (fold selectivity between CTPS1 and CTPS2)” value is “++ (>30-60 fold (++))”.
With `CCOc1cncc(-c2ccc(NC(=O)C(CC)c3ccnc(NS(=O)(=O)C4CC4)n3)nc2)n1` (stereo not drawn) [Example P88], the “Selectivity (fold selectivity between CTPS1 and CTPS2)” value is on record as “+++ (>60 fold (+++))”.
Take `CCOc1cncc(-c2ccc(NC(=O)C(CC)c3cncc(NS(=O)(=O)C4CC4)n3)nc2)n1` (stereo not drawn) [Example P201]: the “Selectivity (fold selectivity between CTPS1 and CTPS2)” value is “+++ (>60 fold (+++))”.
Regarding `CCOc1cncc(-c2ccc(NC(=O)C3(c4ccnc(NS(=O)(=O)C5CC5)n4)CCCC3)nc2)n1` [Example P136], the “Selectivity (fold selectivity between CTPS1 and CTPS2)” value is recorded as “+++ (>60 fold (+++))”.
Same read-out and setting: the same measure for `CCOc1cncc(-c2ccc(NC(=O)C(C)(CCOC)c3cncc(NS(=O)(=O)C4CC4)n3)nc2)n1` (stereo not drawn) [Example P198]: “+++ (>60 fold (+++))”; for `CCOc1cncc(-c2ccc(NC(=O)C(CCOC)c3ccnc(NS(=O)(=O)C4CC4)n3)c(F)c2)n1` (stereo not drawn) [Example P146]: “+++ (>60 fold (+++))”.
Turning to `CCOc1cncc(-c2ccc(NC(=O)C(CC)c3ccnc(NS(=O)(=O)C4CC4)n3)c(C)c2)n1` (stereo not drawn) [Example P161], the “Selectivity (fold selectivity between CTPS1 and CTPS2)” value was “+ (2-30 fold (+))”.
`CC(C)c1cncc(-c2ccc(NC(=O)C(C)(C)c3ccnc(NS(=O)(=O)C4CC4)n3)cc2)n1` [Example P132]: the “Selectivity (fold selectivity between CTPS1 and CTPS2)” value is “++ (>30-60 fold (++))”.
In the case of `CCC(C(=O)Nc1ccc(-c2cncc(OC)n2)cn1)c1ccnc(NS(=O)(=O)C2CC2)n1` (stereo not drawn) [Example P159], the “Selectivity (fold selectivity between CTPS1 and CTPS2)” value is recorded as “+++ (>60 fold (+++))”.
As for `CCOc1cncc(-c2ccc(NC(=O)C(CCOC)c3ccnc(NS(=O)(=O)C4CC4)n3)cc2)n1` (stereo not drawn) [Example P110], the “Selectivity (fold selectivity between CTPS1 and CTPS2)” value was “++ (>30-60 fold (++))”.
Take `CCOc1cncc(-c2ccc(NC(=O)C(C)(C)c3ccnc(NS(C)(=O)=O)n3)nc2)n1` [Example P76]: the “Selectivity (fold selectivity between CTPS1 and CTPS2)” value is listed as “++ (>30-60 fold (++))”.
Still for that read-out and setting: the result for `CCC(C(=O)Nc1ccc(-c2cncc(Cl)c2)cc1)c1ccnc(NS(=O)(=O)C2CC2)n1` (stereo not drawn) [Example P1, N-(4-(5-Chloropyridin-3-yl)phenyl)-2-(2-(cyclopropanesulfonamido)pyrimidin-4-yl)butanamide] reads “+ (2-30 fold (+))”.
On to `CC(C)Oc1cncc(-c2ccc(NC(=O)Cc3ccnc(NS(=O)(=O)C4CC4)n3)c(F)c2)n1` [Example P12], for which the “Selectivity (fold selectivity between CTPS1 and CTPS2)” value is “++ (>30-60 fold (++))”.
The same measure, in the same setting: the result for `CCOc1cncc(-c2ccc(NC(=O)C(CC)c3ccnc(NS(=O)(=O)C4CC4)n3)c(F)c2)n1` (stereo not drawn) [Example P96] reads “+ (2-30 fold (+))”.
Take `CCC(C(=O)Nc1ccc(-c2cncc(OCC(F)(F)F)n2)cc1F)c1ccnc(NS(=O)(=O)C2CC2)n1` (stereo not drawn) [Example P98]: the “Selectivity (fold selectivity between CTPS1 and CTPS2)” value is reported as “+++ (>60 fold (+++))”.
With `CCOc1cncc(-c2ccc(NC(=O)C(C)(C)c3nc(NS(=O)(=O)C4CC4)ncc3F)cc2)n1` [Example P68], the “Selectivity (fold selectivity between CTPS1 and CTPS2)” value is recorded as “++ (>30-60 fold (++))”.
With `CC(C)(NC(=O)c1ccc(-c2cncc(C(F)(F)F)n2)cc1)c1cncc(NS(=O)(=O)C2CC2)n1` [Example P222], the “Selectivity (fold selectivity between CTPS1 and CTPS2)” value was “+ (2-30 fold (+))”.
In the case of `CC(C)(C(=O)Nc1ccc(-c2cccnc2)cc1)c1ccnc(NS(=O)(=O)C2CC2)n1` [Example P59], the “Selectivity (fold selectivity between CTPS1 and CTPS2)” value is given as “+ (2-30 fold (+))”.
For `CCC(C(=O)Nc1ccc(-c2cncc(C(F)(F)F)n2)cn1)c1ccnc(NS(=O)(=O)C2CC2)n1` (stereo not drawn) [Example P87], the “Selectivity (fold selectivity between CTPS1 and CTPS2)” value was “++ (>30-60 fold (++))”.

Staying with this test, now noted: Table 27; RapidFire/MS IC50 ratio.
Turning to `CCOc1cncc(-c2ccc(NC(=O)C3(c4ccnc(NS(=O)(=O)C5CC5)n4)CCC4(CC3)OCCO4)nc2)n1` [Example P244, 8-(2-(cyclopropanesulfonamido)pyrimidin-4-yl)-N-(5-(6-ethoxypyrazin-2-yl)pyridin-2-yl)-1,4-dioxaspiro[4.5]decane-8-carboxamide], the “Selectivity (fold selectivity between CTPS1 and CTPS2)” value was “+++ (>60 fold (+++))”.
Turning to `CCOc1cncc(-c2ccc(NC(=O)C3(c4ccnc(NS(=O)(=O)C5CC5)n4)CCC(F)(F)CC3)nc2)n1` [Example P242], the “Selectivity (fold selectivity between CTPS1 and CTPS2)” value was “+++ (>60 fold (+++))”.
Regarding `CCOc1cncc(-c2ccc(NC(=O)C3(c4ccnc(NS(=O)(=O)C5CC5)n4)CCC(O)CC3)nc2)n1` (single isomer, unassigned) [Example P228, 1-(2-(cyclopropanesulfonamido)pyrimidin-4-yl)-N-(5-(6-ethoxypyrazin-2-yl)pyridin-2-yl)-4-hydroxycyclohexanecarboxamide], the “Selectivity (fold selectivity between CTPS1 and CTPS2)” value was “+ (2-30 fold (+))”.
For `CCOc1cncc(-c2ccc(NC(=O)C3(c4ccnc(NS(=O)(=O)C5CC5)n4)CCC(N(C)C)CC3)nc2)n1` (single isomer, unassigned) [Example P229, 1-(2-(cyclopropanesulfonamido)pyrimidin-4-yl)-4-(dimethylamino)-N-(5-(6-ethoxypyrazin-2-yl)pyridin-2-yl)cyclohexane-1-carboxamide], the “Selectivity (fold selectivity between CTPS1 and CTPS2)” value is listed as “+++ (>60 fold (+++))”.
For the compound `CCOc1cncc(-c2ccc(NC(=O)C3(c4ccnc(NS(=O)(=O)C5CC5)n4)CCC(=O)CC3)nc2)n1` [Example P226, 1-(2-(Cyclopropanesulfonamido)pyrimidin-4-yl)-N-(5-(6-ethoxypyrazin-2-yl)pyridin-2-yl)-4-oxocyclohexanecarboxamide], the “Selectivity (fold selectivity between CTPS1 and CTPS2)” value is on record as “+++ (>60 fold (+++))”.
`CCOc1cncc(-c2ccc(NC(=O)C3(c4ccnc(NS(=O)(=O)C5CC5)n4)CCN(S(C)(=O)=O)CC3)nc2)n1` [Example P251]: the “Selectivity (fold selectivity between CTPS1 and CTPS2)” value was “+++ (>60 fold (+++))”.
